# According to patent US10667478B1, “Metribuzin tolerance alleles in soybean” (Syngenta Participations AG, priority 2017, dated 2020):
# Tested on: Soybean
# Test: Metribuzin phytotoxicity screen of soybean lines in greenhouse pots
# Format: in vivo, Glycine max
# Conditions: applied after planting, scored 16 days later
# Text: In the case of a visual metribuzin sensitivity detection system, a plant is rated for the percent of visual toxicity compared to a control plant which is sensitive to metribuzin.
# Soybean seeds were planted two seeds per pot in two inch pots with clay loam soil (1.36 o.m.). Six replications were arranged in a Randomized Complete Block Design in a greenhouse. Metribuzin was applied at 560 grams active ingredient per hectare after planting. Sixteen days later plants were scored for visual phytotoxicity scored as percent injury.
structure (smiles),measurement,setting,value
"CSc1nnc(C(C)(C)C)c(=O)n1N [Metribuzin, metribuzin]",Injury (%) @ 560 g ai/ha,soybean line A1036478,0%
same,Injury (%) @ 560 g ai/ha,soybean line AR1111926,20%
same,Injury (%) @ 560 g ai/ha,soybean line AR1112922,0%
same,Injury (%) @ 560 g ai/ha,soybean line AR1210100,15%
same,Injury (%) @ 560 g ai/ha,soybean line AR1210104,45%
same,Injury (%) @ 560 g ai/ha,soybean line AR1210856,9%
same,Injury (%) @ 560 g ai/ha,soybean line AR1210886,0%
same,Injury (%) @ 560 g ai/ha,soybean line AR1211262,0%
same,Injury (%) @ 560 g ai/ha,soybean line AR1211948,44%
same,Injury (%) @ 560 g ai/ha,soybean line BK1011572,23%
same,Injury (%) @ 560 g ai/ha,soybean line BK1211980,17%
same,Injury (%) @ 560 g ai/ha,soybean line BY1210428,54%
same,Injury (%) @ 560 g ai/ha,soybean line BY1211100,49%
same,Injury (%) @ 560 g ai/ha,soybean line BY1212083,0%
same,Injury (%) @ 560 g ai/ha,soybean line BY1212201,3%
same,Injury (%) @ 560 g ai/ha,soybean line BY1212223,0%
same,Injury (%) @ 560 g ai/ha,soybean line BY1213080,0%
same,Injury (%) @ 560 g ai/ha,soybean line CC1210319,0%
same,Injury (%) @ 560 g ai/ha,soybean line CC1211481,12%
same,Injury (%) @ 560 g ai/ha,soybean line CC1211818,0%
same,Injury (%) @ 560 g ai/ha,soybean line CC1212005,35%
same,Injury (%) @ 560 g ai/ha,soybean line CC1215412,0%
same,Injury (%) @ 560 g ai/ha,soybean line CC1215903,0%
same,Injury (%) @ 560 g ai/ha,soybean line CC1215927,45%
same,Injury (%) @ 560 g ai/ha,soybean line CC1217018,0%
same,Injury (%) @ 560 g ai/ha,soybean line CC1217019,0%
same,Injury (%) @ 560 g ai/ha,soybean line CE1210923,0%
same,Injury (%) @ 560 g ai/ha,soybean line CE1210997,0%
same,Injury (%) @ 560 g ai/ha,soybean line CE1211033,37%
same,Injury (%) @ 560 g ai/ha,soybean line CE1211109,0%
same,Injury (%) @ 560 g ai/ha,soybean line CE1211211,14%
same,Injury (%) @ 560 g ai/ha,soybean line CE1211264,28%
same,Injury (%) @ 560 g ai/ha,soybean line CE1211339,0%
same,Injury (%) @ 560 g ai/ha,soybean line CE1211377,0%
same,Injury (%) @ 560 g ai/ha,soybean line CE1211403,0%
same,Injury (%) @ 560 g ai/ha,soybean line CE1211693,0%
same,Injury (%) @ 560 g ai/ha,soybean line CE1212024,0%
same,Injury (%) @ 560 g ai/ha,soybean line CE1213779,38%
same,Injury (%) @ 560 g ai/ha,soybean line CE1214014,47%
same,Injury (%) @ 560 g ai/ha,soybean line CE1214443,0%
same,Injury (%) @ 560 g ai/ha,soybean line CE1214602,0%
same,Injury (%) @ 560 g ai/ha,soybean line CE1214610,47%
same,Injury (%) @ 560 g ai/ha,soybean line G01010146,0%
same,Injury (%) @ 560 g ai/ha,soybean line GO1110272,54%
same,Injury (%) @ 560 g ai/ha,soybean line GO1110602,53%
same,Injury (%) @ 560 g ai/ha,soybean line LL511,92%
same,Injury (%) @ 560 g ai/ha,soybean line LL513N,2%
same,Injury (%) @ 560 g ai/ha,soybean line LL563N,5%
same,Injury (%) @ 560 g ai/ha,soybean line LL595N,96%
same,Injury (%) @ 560 g ai/ha,soybean line NE0912640,0%
same,Injury (%) @ 560 g ai/ha,soybean line NE1212391,0%
same,Injury (%) @ 560 g ai/ha,soybean line NE1214412,5%
same,Injury (%) @ 560 g ai/ha,soybean line NE1214737,0%
same,Injury (%) @ 560 g ai/ha,soybean line NE1215099,0%
same,Injury (%) @ 560 g ai/ha,soybean line OW1011073,11%
same,Injury (%) @ 560 g ai/ha,soybean line OW1011829,50%
same,Injury (%) @ 560 g ai/ha,soybean line OW1012353,17%
same,Injury (%) @ 560 g ai/ha,soybean line OW1113014,34%
same,Injury (%) @ 560 g ai/ha,soybean line OW1210742,45%
same,Injury (%) @ 560 g ai/ha,soybean line OW1212626,25%
same,Injury (%) @ 560 g ai/ha,soybean line OW1213195,28%
same,Injury (%) @ 560 g ai/ha,soybean line OW1213207,28%
same,Injury (%) @ 560 g ai/ha,soybean line OW1213282,23%
same,Injury (%) @ 560 g ai/ha,soybean line OW1213323,42%
same,Injury (%) @ 560 g ai/ha,soybean line S77-T7,23%
same,Injury (%) @ 560 g ai/ha,soybean line S78-G6,10%
same,Injury (%) @ 560 g ai/ha,soybean line SJ1114205,0%
same,Injury (%) @ 560 g ai/ha,soybean line SJ1210059,0%
same,Injury (%) @ 560 g ai/ha,soybean line SJ1210512,11%
same,Injury (%) @ 560 g ai/ha,soybean line SJ1210526,0%
same,Injury (%) @ 560 g ai/ha,soybean line SJ1210678,0%
same,Injury (%) @ 560 g ai/ha,soybean line SJ1210829,0%
same,Injury (%) @ 560 g ai/ha,soybean line SJ1210844,0%
same,Injury (%) @ 560 g ai/ha,soybean line SJ1210862,0%
same,Injury (%) @ 560 g ai/ha,soybean line SJ1210867,25%
same,Injury (%) @ 560 g ai/ha,soybean line SJ1211190,55%
same,Injury (%) @ 560 g ai/ha,soybean line SJ1212283,0%
same,Injury (%) @ 560 g ai/ha,soybean line SJ1213014,0%
same,Injury (%) @ 560 g ai/ha,soybean line SJ1213512,0%
same,Injury (%) @ 560 g ai/ha,soybean line SJ1213805,48%
same,Injury (%) @ 560 g ai/ha,soybean line WN1116259,0%
same,Injury (%) @ 560 g ai/ha,soybean line WN1118256,47%
same,Injury (%) @ 560 g ai/ha,soybean line WN1118297,0%
